Assay results reported in ChEMBL document CHEMBL1909046, “DrugMatrix in vitro pharmacology data”.

Experiments:
[1] = target: Melanocortin receptor 5 (Homo sapiens, UniProt P33032); assay type: cell membranes, HEK293, Membrane; conditions: hek293; further: in other assays of this panel Not Active means under 50% inhibition at 10 µM
[2] = DRUGMATRIX: GABAA, Flunitrazepam, Central radioligand binding (ligand: [3H] Flunitrazepam); assay type: cell membranes, Rattus norvegicus, Wistar, Brain, Membrane; conditions: Not Active = under 50% inhibition at 10 µM
[3] = target: T1, Receptor-type tyrosine-protein phosphatase C (Homo sapiens, UniProt P08575); set-up: species or system Escherichia coli;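 further: inhibition of CD45 enzyme activity measured using DiFMUP as substrate; in other assays of this panel Not Active means under 50% inhibition at 10 µM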
T1 sequence (P08575 whole entry): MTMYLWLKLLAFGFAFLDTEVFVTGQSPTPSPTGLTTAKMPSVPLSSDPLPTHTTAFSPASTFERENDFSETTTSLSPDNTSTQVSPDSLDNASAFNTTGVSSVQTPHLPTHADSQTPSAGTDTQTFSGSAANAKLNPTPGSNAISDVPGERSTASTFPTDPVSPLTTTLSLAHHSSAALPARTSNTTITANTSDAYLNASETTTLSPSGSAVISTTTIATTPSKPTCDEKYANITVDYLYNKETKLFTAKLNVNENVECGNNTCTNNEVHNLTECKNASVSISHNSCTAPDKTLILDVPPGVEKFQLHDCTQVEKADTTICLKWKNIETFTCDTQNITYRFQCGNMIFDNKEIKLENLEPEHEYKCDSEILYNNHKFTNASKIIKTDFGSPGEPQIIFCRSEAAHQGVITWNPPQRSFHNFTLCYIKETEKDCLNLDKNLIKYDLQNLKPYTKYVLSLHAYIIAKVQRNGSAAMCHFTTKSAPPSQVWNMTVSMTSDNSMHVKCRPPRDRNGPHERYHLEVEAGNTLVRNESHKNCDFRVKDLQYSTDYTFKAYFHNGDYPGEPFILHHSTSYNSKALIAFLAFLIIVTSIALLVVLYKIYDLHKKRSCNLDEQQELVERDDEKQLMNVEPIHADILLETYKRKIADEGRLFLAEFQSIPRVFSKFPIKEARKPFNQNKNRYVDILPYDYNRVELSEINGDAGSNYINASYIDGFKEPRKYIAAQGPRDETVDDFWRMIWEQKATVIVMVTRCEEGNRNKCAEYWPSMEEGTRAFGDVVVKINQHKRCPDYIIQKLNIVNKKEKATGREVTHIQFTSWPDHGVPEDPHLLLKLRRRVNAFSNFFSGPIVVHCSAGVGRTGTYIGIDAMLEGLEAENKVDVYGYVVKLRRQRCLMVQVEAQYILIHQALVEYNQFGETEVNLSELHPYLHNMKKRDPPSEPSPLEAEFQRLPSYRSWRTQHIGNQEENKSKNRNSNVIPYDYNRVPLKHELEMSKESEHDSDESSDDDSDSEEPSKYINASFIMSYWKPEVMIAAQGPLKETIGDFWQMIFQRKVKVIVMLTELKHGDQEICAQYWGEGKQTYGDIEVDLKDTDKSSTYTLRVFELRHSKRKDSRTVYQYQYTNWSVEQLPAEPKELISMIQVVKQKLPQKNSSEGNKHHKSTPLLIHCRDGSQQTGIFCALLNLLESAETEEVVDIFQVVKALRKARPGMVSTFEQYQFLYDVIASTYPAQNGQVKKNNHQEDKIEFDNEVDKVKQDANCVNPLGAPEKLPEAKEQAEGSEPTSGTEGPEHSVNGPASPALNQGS

[4] = target: C-C chemokine receptor type 2 (Homo sapiens, UniProt P41597); assay type: cell membranes, CHO-K1, Membrane; conditions: cho-k1; further: in other assays of this panel Not Active means under 50% inhibition at 10 µM
[5] = target: D(3) dopamine receptor (Homo sapiens, UniProt P35462); assay: DRUGMATRIX: Dopamine D3 radioligand binding (ligand: [3H] Spiperone); assay type: cell membranes, CHO, Membrane; conditions: cho
[6] = DRUGMATRIX: Platelet-Derived Growth Factor (PDGF) radioligand binding (ligand: [125I] PDGF); assay type: cell-based; conditions: nih3t3; Not Active = under 50% inhibition at 10 µM

Chain of C-C chemokine receptor type 2 (P41597 whole entry): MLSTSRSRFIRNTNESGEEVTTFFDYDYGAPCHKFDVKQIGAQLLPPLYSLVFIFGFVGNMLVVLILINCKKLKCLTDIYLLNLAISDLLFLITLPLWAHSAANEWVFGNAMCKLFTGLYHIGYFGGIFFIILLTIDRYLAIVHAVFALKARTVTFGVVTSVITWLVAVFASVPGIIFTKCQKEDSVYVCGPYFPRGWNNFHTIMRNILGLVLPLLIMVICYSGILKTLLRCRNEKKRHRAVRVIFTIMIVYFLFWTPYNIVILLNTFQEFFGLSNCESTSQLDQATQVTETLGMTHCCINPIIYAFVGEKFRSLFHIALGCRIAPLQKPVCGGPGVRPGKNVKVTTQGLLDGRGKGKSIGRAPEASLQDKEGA
Chain of D(3) dopamine receptor (P35462 whole entry): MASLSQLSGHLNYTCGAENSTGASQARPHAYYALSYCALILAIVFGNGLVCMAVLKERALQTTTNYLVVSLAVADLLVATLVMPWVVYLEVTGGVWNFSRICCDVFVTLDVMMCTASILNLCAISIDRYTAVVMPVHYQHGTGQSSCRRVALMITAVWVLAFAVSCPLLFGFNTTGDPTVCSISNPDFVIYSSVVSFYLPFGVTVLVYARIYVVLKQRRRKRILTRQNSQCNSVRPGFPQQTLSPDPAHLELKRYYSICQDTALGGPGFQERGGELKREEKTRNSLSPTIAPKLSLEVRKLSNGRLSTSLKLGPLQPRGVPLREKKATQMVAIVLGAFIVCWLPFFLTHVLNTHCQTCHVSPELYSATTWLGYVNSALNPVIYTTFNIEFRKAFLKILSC
Chain of Melanocortin receptor 5 (P33032 whole entry): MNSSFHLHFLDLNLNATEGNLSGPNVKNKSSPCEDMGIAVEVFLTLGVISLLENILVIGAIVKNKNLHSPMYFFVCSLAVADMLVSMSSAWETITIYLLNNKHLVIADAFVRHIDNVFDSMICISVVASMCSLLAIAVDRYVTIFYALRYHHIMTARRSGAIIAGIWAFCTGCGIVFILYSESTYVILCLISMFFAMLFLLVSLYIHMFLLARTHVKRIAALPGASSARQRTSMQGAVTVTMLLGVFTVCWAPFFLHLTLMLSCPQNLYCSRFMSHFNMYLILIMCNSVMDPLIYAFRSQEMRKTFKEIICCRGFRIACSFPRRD

C[N+](C)(C)CCOP(=O)([O-])OC[C@H](O)CO
Not Active: IC50 [1] | IC50 [2] | Ki [2] | IC50 [3] | IC50 [4] | IC50 [5] | IC50 [6] | Ki [6]

OC[C@H]1O[C@@H]2O[C@H]3[C@H](O)[C@@H](O)[C@@H](O[C@H]4[C@H](O)[C@@H](O)[C@@H](O[C@H]5[C@H](O)[C@@H](O)[C@@H](O[C@H]6[C@H](O)[C@@H](O)[C@@H](O[C@H]7[C@H](O)[C@@H](O)[C@@H](O[C@H]8[C@H](O)[C@@H](O)[C@@H](O[C@H]1[C@H](O)[C@H]2O)O[C@@H]8CO)O[C@@H]7CO)O[C@@H]6CO)O[C@@H]5CO)O[C@@H]4CO)O[C@@H]3CO [BETADEX]
Not Active: IC50 [1] | IC50 [2] | Ki [2] | IC50 [3] | IC50 [4] | IC50 [5] | IC50 [6] | Ki [6]

CARBOXYMETHYLCELLULOSE
Not Active: IC50 [1] | Ki [1] | IC50 [2] | Ki [2] | IC50 [3] | Ki [3] | IC50 [4] | Ki [4] | IC50 [5] | Ki [5] | IC50 [6] | Ki [6]

O=C(O)COC(=O)Cc1ccccc1Nc1c(Cl)cccc1Cl [ACECLOFENAC]
Not Active: IC50 [1] | IC50 [2] | Ki [2] | IC50 [3] | IC50 [4] | IC50 [5] | IC50 [6] | Ki [6]

COc1ccc(C[C@H](N)C(=O)N[C@H]2[C@@H](O)[C@H](n3cnc4c(N(C)C)ncnc43)O[C@@H]2CO)cc1 [PUROMYCIN]
Not Active: IC50 [1] | IC50 [2] | Ki [2] | IC50 [3] | IC50 [4] | IC50 [5] | IC50 [6] | Ki [6]

O=C(O)c1ccccc1 [BENZOIC ACID]
Not Active: IC50 [1] | IC50 [2] | Ki [2] | IC50 [3] | IC50 [4] | IC50 [5] | IC50 [6] | Ki [6]

C[C@H]1C[C@H]2[C@@H]3CCC4=CC(=O)C=C[C@]4(C)[C@@]3(F)[C@@H](O)C[C@]2(C)[C@@]1(O)C(=O)CO [BETAMETHASONE]
Not Active: IC50 [1] | IC50 [2] | Ki [2] | IC50 [3] | IC50 [4] | IC50 [5] | IC50 [6] | Ki [6]

Oc1ccccc1 [PHENOL]
Not Active: IC50 [1] | IC50 [2] | Ki [2] | IC50 [3] | IC50 [4] | IC50 [5] | IC50 [6] | Ki [6]

C[C@H](C(=O)O)c1ccc2oc(-c3ccc(F)cc3)nc2c1 [FLUNOXAPROFEN]
Not Active: IC50 [1] | IC50 [2] | Ki [2] | IC50 [3] | IC50 [4] | IC50 [5] | IC50 [6] | Ki [6]

C[C@@H]1[C@H](O)[C@@H](C)/C=C/C=C/C=C/C=C/C=C/C=C/C=C/[C@H](O[C@@H]2O[C@H](C)[C@@H](O)[C@H](N)[C@@H]2O)C[C@@H]2O[C@](O)(C[C@@H](O)C[C@@H](O)[C@H](O)CC[C@@H](O)C[C@@H](O)CC(=O)O[C@H]1C)C[C@H](O)[C@H]2C(=O)O [AMPHOTERICIN B]
Not Active: IC50 [1] | IC50 [2] | Ki [2] | IC50 [3] | IC50 [4] | IC50 [5] | IC50 [6] | Ki [6]

COc1cc(NC(C)CCCN)c2ncccc2c1 (stereo not drawn) [PRIMAQUINE]
Not Active: IC50 [1] | IC50 [2] | Ki [2] | IC50 [3] | IC50 [4] | IC50 [5] | IC50 [6] | Ki [6]

COc1cc(/C=C/C(=O)O)ccc1O [FERULATE]
Not Active: IC50 [1] | IC50 [2] | Ki [2] | IC50 [3] | IC50 [4] | IC50 [5] | IC50 [6] | Ki [6]

CNC[C@H](O)c1ccc(O)c(O)c1 [EPINEPHRINE]
Not Active: IC50 [1] | IC50 [2] | Ki [2] | IC50 [3] | IC50 [4] | IC50 [5] | IC50 [6] | Ki [6]
